# Assays:
# [1] = target: T1, CYP3A4 (testosterone metabolic site) (Homo sapiens, UniProt P08684); assay: Inhibition of testosterone metabolic site on human liver microsome CYP3A4; assay type: in vitro ADME; details: human liver microsomes, testosterone probe
# T1 construct: Human liver microsome (Corning Gentest); tissue Corning Gentest; host or cells: human liver microsomes
# Protocol: Test example 4. Inhibitory effect of the compound disclosed herein on enzymatic activity of testosterone metabolic site on human liver microsome CYP3A4
# The inhibitory effect of the compound disclosed herein on the enzymatic activity of the testosterone metabolic site on human liver microsome CYP3A4 was determined by the following procedures:
# • 1. Phosphate buffered saline (PBS), • 2. NADPH (Sigma N-1630), • 3. Human liver microsome (Corning Gentest), • 4. ABI QTrap 4000 LC-MS/MS System (AB Sciex), • 5. Inertsil C8-3 column, 4.6×50 mm, 5 (Dikma, USA), • 6. CYP probe substrate (testosterone/100 μM, SIGMA K1003) and positive control inhibitor (ketoconazole, Dr. Ehrenstorfer GmbH, C17322500). II. Procedures
# A 100 mM PBS buffer was prepared and was used to prepare a 2.5 mg/mL microsome solution and a 5 mM NADPH solution. A compound working solution at 5× concentration was serially diluted with PBS (150, 50, 15, 5, 1.5, 0.15, 0.015 and 0 μM). A ketoconazole working solution at 5× concentration was serially diluted with PBS (150, 50, 15, 5, 1.5, 0.15, 0.015 and 0 μM). A dextromethorphan working solution was diluted to 50 μM with PBS. […]
# The IC50 values of the drug for testosterone metabolic site on CYP3A4 were calculated by Graphpad Prism and are shown in Table 1-4.
# [2] = tested on: IL-12 secretion in peripheral blood mononuclear cells (PBMCs); assay: Stimulation of IL-12 secretion in PBMCs; assay type: cell-based, human; details: 24 h incubation
# Protocol: Test example 5. Determination of the ability of the compound disclosed herein to stimulate IL-12 and IFNγ secretion in peripheral blood mononuclear cells (PBMCs) The ability of the compound disclosed herein to stimulate IL-12 and IFNγ secretion in PBMCs was determined by the following procedures:
# • 1. RPMI 1640 (Invitrogen, 11875), • 2. FBS (Gibco, 10099-141), • 3. Ficoll-Paque PREMIUM (GE, 17-5442-02), • 4. Trypan blue solution (Sigma, T8154-100ML), • 5. SepMateTM-50 (Stemcell, 15460), • 6. Bright-Line™ cytometer (Sigma, Z359629-1EA), • 7. 96-well flat bottom plate (Corning, 3599), • 8. 96-well v-bottom plate (Corning, 3894), • 9. Human IL-12 ELISA kit (NEOBIOSCIENCE, EHC152.96), • 10. Human IFN γ kit (Cisbio, 62HIFNGPEG), • 11. PHERAStar Multi-Mode Microplate Reader (BMG, PHERAStar). II. Procedures […]
# All reagents were equilibrated to room temperature. […] The cells were resuspended in RMPI 1640 culture medium containing 10% FBS, counted and adjusted to 3.33×10^6 cells/mL. […]
# The reagents of the Human IL-12 detection kit was equilibrated to room temperature. […] Finally, a terminating solution was added to terminate the reaction, and the plate was detected for the absorbance at 450 nm using a microplate reader. […]
# The ability of the compound disclosed herein to stimulate IL-12 and IFNγ secretion in PBMCs was determined by the above test and the MEC values obtained are shown in Table 1-5.
# TLR7 = target: T2, TLR7 (Homo sapiens, UniProt Q9NYK1); details: background statement; cited from earlier work
# T2 sequence (Q9NYK1 27-1049): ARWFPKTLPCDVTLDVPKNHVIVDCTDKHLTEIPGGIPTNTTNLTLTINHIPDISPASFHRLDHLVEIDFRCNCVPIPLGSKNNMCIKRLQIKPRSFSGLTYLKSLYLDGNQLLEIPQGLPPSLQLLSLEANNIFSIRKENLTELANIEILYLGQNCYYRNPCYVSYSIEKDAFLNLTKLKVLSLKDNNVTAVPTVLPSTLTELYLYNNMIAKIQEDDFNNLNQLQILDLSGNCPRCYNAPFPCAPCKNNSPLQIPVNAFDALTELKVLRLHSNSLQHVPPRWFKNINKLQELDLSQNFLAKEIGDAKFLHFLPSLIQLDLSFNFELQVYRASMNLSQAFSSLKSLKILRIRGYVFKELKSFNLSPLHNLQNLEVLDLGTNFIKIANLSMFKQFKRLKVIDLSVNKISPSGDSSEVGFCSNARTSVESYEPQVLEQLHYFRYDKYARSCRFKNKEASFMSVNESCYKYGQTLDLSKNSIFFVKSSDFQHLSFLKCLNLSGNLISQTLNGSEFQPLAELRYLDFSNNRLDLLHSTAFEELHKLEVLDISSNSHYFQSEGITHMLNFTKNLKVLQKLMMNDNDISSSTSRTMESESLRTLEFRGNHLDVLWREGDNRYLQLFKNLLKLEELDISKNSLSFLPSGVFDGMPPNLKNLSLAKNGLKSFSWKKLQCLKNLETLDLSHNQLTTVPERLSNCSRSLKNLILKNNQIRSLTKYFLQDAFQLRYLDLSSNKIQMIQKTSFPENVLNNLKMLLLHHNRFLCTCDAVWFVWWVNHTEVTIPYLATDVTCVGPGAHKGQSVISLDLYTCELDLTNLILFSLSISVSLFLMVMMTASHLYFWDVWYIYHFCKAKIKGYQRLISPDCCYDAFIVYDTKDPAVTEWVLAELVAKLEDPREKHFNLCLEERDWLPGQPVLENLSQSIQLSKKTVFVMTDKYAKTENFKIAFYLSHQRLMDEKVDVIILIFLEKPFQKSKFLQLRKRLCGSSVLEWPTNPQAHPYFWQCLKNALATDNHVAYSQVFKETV
# Cyp and hERG = details: background statement; cited from earlier work
# [3] = 30-day influencing factor stability test (heating, illumination, high humidity); assay type: physicochemical
# Protocol: The crystalline form A and crystalline form B of the compound of formula (I) were transferred and let stand in clean open weighing bottles to test the stability under the conditions of heating (40° C., 60° C.), illumination (4500 1×±500 1×) and high humidity (90%±5%, 75%±5%) during an inspection period of 30 days.
# [4] = Stability under long-term and accelerated conditions, 3 months; assay type: physicochemical
# Protocol: The crystalline form B of the compound of formula (I) was examined for the stability under long-term (25° C., 60% RH) and accelerated (40° C., 75% RH) conditions in a period of 3 months.
# T1 sequence (P08684 whole entry): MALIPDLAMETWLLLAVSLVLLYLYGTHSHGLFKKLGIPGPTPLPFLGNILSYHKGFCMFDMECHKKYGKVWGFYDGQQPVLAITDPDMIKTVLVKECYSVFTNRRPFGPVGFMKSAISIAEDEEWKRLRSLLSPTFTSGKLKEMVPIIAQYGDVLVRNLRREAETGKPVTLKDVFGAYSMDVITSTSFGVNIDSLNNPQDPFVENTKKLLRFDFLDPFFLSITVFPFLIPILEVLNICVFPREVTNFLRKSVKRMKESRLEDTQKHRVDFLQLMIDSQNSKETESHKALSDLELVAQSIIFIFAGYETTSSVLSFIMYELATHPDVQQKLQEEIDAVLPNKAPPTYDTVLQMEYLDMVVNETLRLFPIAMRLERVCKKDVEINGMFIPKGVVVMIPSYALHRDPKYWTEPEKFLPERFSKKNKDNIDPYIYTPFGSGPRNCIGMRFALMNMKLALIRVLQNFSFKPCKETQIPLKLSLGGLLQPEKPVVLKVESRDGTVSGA
Structure (SMILES),Activity on TLR7 (in words) (TLR7),Selectivity for Cyp and hERG (in words) (Cyp and hERG),"Purity ([3]; 40° C., 5 days) [%]","Purity ([3]; 40° C., 10 days) [%]","Purity ([3]; 40° C., 30 days) [%]","Purity ([3]; 60° C., 5 days) [%]","Purity ([3]; 60° C., 10 days) [%]","Purity ([3]; 60° C., 30 days) [%]","Purity ([3]; 4500 lux, 5 days) [%]","Purity ([3]; 4500 lux, 10 days) [%]","Purity ([3]; 4500 lux, 30 days) [%]","Purity ([3]; Initial, 0 days) [%]","Purity ([3]; RH 75%, 5 days) [%]","Purity ([3]; RH 75%, 10 days) [%]","Purity ([3]; RH 75%, 30 days) [%]","Purity ([3]; RH 90%, 5 days) [%]","Purity ([3]; RH 90%, 10 days) [%]","Purity ([3]; RH 90%, 30 days) [%]",other results
"CCCC[C@](C)(CO)Nc1nc(N)nc2cc(-c3ccc(CN4CCN(C)CC4)nc3)cnc12 [Example 1, (R)-2-((2-amino-7-(6-((4-methylpiperazin-1-yl)methyl)pyridin-3-yl)pyrido[3,2-d]pyrimidin-4-yl)amino)-2-methylhexan-1-ol]",,,,,,,,,,,,,,,,,,,IC50 at 30 min [1]: > 30 µM; IL-12 MEC (minimum effective concentration) [2]: 41 nM
CCCC[C@](C)(CO)Nc1nc(N)nc2cc(F)cnc12 [GS-9688],certain activity on TLR7,poor selectivity for Cyp and hERG,,,,,,,,,,,,,,,,,
CCCN(CCC)C(=O)C1=Cc2ccc(-c3ccc(C(=O)N4CCCC4)cc3)cc2N=C(N)C1 [VTX-2337],certain activity on TLR7,poor selectivity for Cyp and hERG,,,,,,,,,,,,,,,,,
CCCC[C@](C)(CO)Nc1nc(N)nc2cc(-c3ccc(CN4CCN(C)CC4)nc3)cnc12 [crystalline form A],,,96.98,96.98,95.47,95.87,95.72,93.74,95.82,94.99,92.51,97.83,97.83,97.85,97.47,97.91,97.84,97.53,
CCCC[C@](C)(CO)Nc1nc(N)nc2cc(-c3ccc(CN4CCN(C)CC4)nc3)cnc12 [crystalline form B],,,98.19,98.17,97.23,97.87,97.53,96.24,95.48,92.61,88.03,98.65,98.65,98.69,97.96,98.69,98.75,97.99,"Physical and chemical stability (in words) ([4]; 3 months, long-term (25° C., 60% RH) and accelerated (40° C., 75% RH)): good physical and chemical stabilities; Purity ([4]; 25° C., 60% RH, Initial): 99.71%; Purity ([4]; 25° C., 60% RH, Month 1): 99.70%; Purity ([4]; 25° C., 60% RH, Month 2): 99.71%; Purity ([4]; 25° C., 60% RH, Month 3): 99.62%; Purity ([4]; 40° C., 75% RH, Initial): 99.71%; Purity ([4]; 40° C., 75% RH, Month 1): 99.69%; Purity ([4]; 40° C., 75% RH, Month 2): 99.68%; Purity ([4]; 40° C., 75% RH, Month 3): 99.54%"

# — US12269823B2, “Crystal form of pyridopyrimidine derivative and preparation method thereof” (JIANGSU HENGRUI MEDICINE CO., LTD., priority 2020, dated 2025)
